Patent publication US12162857B2, “Antiviral compounds” (priority 2022, dated 2024)

How the values were obtained:
[1] = system: HRSV; settings: prophylactic use, high risk infants; cited from earlier work
[2] = system: Human RSV-A (“Long” strain); test: RSV-A assay: CPE in Hep-2 cells, ATPlite readout; type: cell-based; settings: human respiratory syncytial virus, 120 h, MOI 0.1, 5-day incubation
[3] = system: HMPV A2 TN/94-49; test: HMPV antiviral assay: LLC-MK2 cells, ATP-Lite readout; type: cell-based; settings: LLC-MK2, 168 h, MOI 0.005, 7 days incubation
Procedure, shortened: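 LLC-MK2 cells (5,000/well) were infected in suspension with HMPV A2 TN/94-49 at MOI 0.005 in serum-free OptiMEM with 2 μg/mL final TPCK-trypsin, then incubated for 7 days at 37 °C. Compounds were tested in duplicate from 2 μM in 10-point 2.5-fold dilutions. ATP-Lite luminescence, normalised to virus-only and cells-only controls as % cell health, gave EC50 by four-parameter fit.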

Molecule	effective in reducing hospitalizations [1]	EC50 [2]	EC50 [3]
Palivizumab	60%		
[2H]C([2H])([2H])C(O)(c1cc([C@@](O)(CNC(=O)c2cc(OC)c3nn(C4CC4)cc3c2)c2ccccc2)nc(-c2cc(Cl)c(F)cc2F)c1F)C([2H])([2H])[2H] [Example 183]		< 0.01 µM	< 1 µM
CC(C)(O)c1cc([C@@](O)(CNC(=O)c2ccc3nn(C4CC4)cc3c2)C2CC2)nc(-c2ccc(F)cc2)c1F [Example 3]		0.01 to 0.05 µM	> 1 µM
COc1cc(C(=O)NC[C@@](O)(c2ccccc2)c2cc(C(C)(C)O)c(Cl)c(-c3cc(Cl)c(F)cc3F)n2)cc2cn(C3CC3)nc12 (single isomer, unassigned) [Example 132]		< 0.01 µM	< 1 µM
COc1cc(C(=O)NC[C@@](O)(c2ccccc2)c2cc(C(C)(C)O)c(F)c(-c3ccc4c(c3Cl)OC(F)(F)O4)n2)cc2cn(C3CC3)nc12 [Example 74]		< 0.01 µM	< 1 µM
COc1cc(C(=O)NC[C@](O)(c2cc(C(C)(C)O)c(F)c(-c3ccc(F)cc3)n2)C2CC2)cc2cn(C(F)F)nc12 [Example 2]		< 0.01 µM	< 1 µM
